Laboratory results: ChEMBL document CHEMBL4382198, “Discovery of Risdiplam, a Selective Survival of Motor Neuron-2 ( SMN2) Gene Splicing Modifier for the Treatment of Spinal Muscular Atrophy (SMA)” (J Med Chem, 2018)
Active and inactive are the calls of the source. No cut-off for these calls is given here.

What was measured:
[1] = tested on: Mus musculus; assay: In-vivo stabilization of SMN2 mRNA in SMA adult C/C allele mouse model assessed as increase in SMN protein levels in brain at 10 mg/kg, po dosed once daily for 10 days relative to control; format: functional
[2] = tested on: Mus musculus; assay: In-vivo stabilization of SMN2 mRNA in SMA neonatal delta7 mouse model assessed as increase in SMN protein levels in brain at 1 mg/kg, ip dosed once daily starting from postnatal day 3 to postnatal day 9 relative to control; format: functional
[3] = Cardiotoxicity in cynomolgus monkey assessed as prolongation of QTc interval time; format: toxicity, Macaca fascicularis
[4] = Chronic toxicity in retina of po dosed cynomolgus monkey assessed as multifocal peripheral retina degeneration after 39 weeks by OCT analysis; format: organism-based, Macaca fascicularis; conditions: in vivo, 6552 h
[5] = tested on: Mus musculus; assay: In-vivo stabilization SMN2 mRNA in SMA delta7 mouse assessed as increase in mean survival day at 0.1 mg/kg, ip dosed daily starting from postnatal day 3 to postnatal day 23 followed by po dosing 0.3 mg/kg per day via gavage (reference value: 10.5 days); format: functional
[6] = Toxicity in po dosed rat assessed phospholipidosis administered via gavage up to 26 weeks; format: organism-based; conditions: in vivo, 4368 h
[7] = tested on: Mus musculus; assay: In-vivo stabilization of SMN2 mRNA in SMA neonatal delta7 mouse model assessed as increase in SMN protein levels in quadriceps at 0.3 mg/kg, ip dosed once daily starting from postnatal day 3 to postnatal day 9 relative to control; format: functional
[8] = Stabilization of human MADD mRNA splicing expressed in human SMA-derived fibroblasts at 121 to 605 nM by RT-qPCR analysis; format: ADME; conditions: 0.605 µM
[9] = Chronic toxicity in retina of po dosed cynomolgus monkey assessed as effect on outer nuclear layers after 39 weeks by histological analysis; format: organism-based, Macaca fascicularis; conditions: in vivo, 6552 h
[10] = Efflux ratio of permeability in human SMA-derived fibroblasts; format: ADME, cell-based, Fibroblast; conditions: not told
[11] = Volume of distribution at steady state in rat at 1.9 mg/kg, iv administered as single dose; format: ADME, organism-based; conditions: in vivo, read-out: Vdss
[12] = physchem
[13] = Oral bioavailability in cynomolgus monkey at 0.5 mg/kg administered as single dose; format: ADME, organism-based, Macaca fascicularis; conditions: in vivo
[14] = tested on: Mus musculus; assay: In-vivo stabilization SMN2 mRNA in SMA delta7 mouse assessed as increase in mean survival day at 0.1 to 3 mg/kg, ip dosed daily starting from postnatal day 3 to postnatal day 23 followed by po dosing 0.3 to 10 mg/kg per day via gavage; format: functional, organism-based
[15] = tested on: Mus musculus; assay: In-vivo stabilization of SMN2 mRNA in SMA neonatal delta7 mouse model assessed as increase in SMN protein levels in quadriceps at 0.1 mg/kg, ip dosed once daily starting from postnatal day 3 to postnatal day 9 relative to control; format: functional
[16] = Fraction unbound in mouse plasma; format: ADME, cell-free
[17] = Half life in rat at 5.5 mg/kg, po administered as single dose; format: ADME, organism-based; conditions: in vivo

In the case of Cc1cn2nc(-c3cc(=O)n4cc(N5CCNC6(CC6)C5)ccc4n3)cc(C)c2n1, the Activity [1] is reported as 100%, the Activity [2] is reported as 206% and the Activity [3] is reported as “Non-Toxic”. For the same compound, the Activity [4] was “Toxic”, the MSD [5] was 26 days and the Activity [6] was “Non-Toxic”. The Activity [7] was 64%, the Activity [8] was “Non-Toxic” and the Activity [9] was “Toxic”. For the same compound, the efflux ratio [10] was 2.2, the Vd [11] was 3.1 L/kg and the pKa [12] was 6.8. The bioavailability [13] was 43%, the Activity [14] was “Active” and the Activity [15] was 32%. It also gave a fraction unbound [16] of 0.1 and a half-life [17] of 6.4 h.
